Where two headings read alike, the source gives them in different places.
What was measured:
[1] = tested on: GPR119; set-up: method as in PMID 30100020, PMID 30685641; conditions: earlier work of the authors ref 31, 32; read-out: EC50 (GPR119 agonistic potency); cited from earlier work
[2] = tested on: mice; set-up: method as in PMID 30100020, PMID 30685641; conditions: compared with positive control ref 31, 32; cited from earlier work
[3] = biological target: T1, human GPR119 (Homo sapiens, UniProt Q8TDV5); test: hGPR119 agonistic activity, LANCE Ultra cAMP accumulation assay in CHO K1 cells stably expressing human GPR119; type: cell-based; conditions: for Emax: CHO-K1, 1 h, read-out: GPR119 activation %max (inherent activity)
T1 construct: expressed in transfected cells; host or cells: CHO K1
T1 sequence (Q8TDV5 1-335): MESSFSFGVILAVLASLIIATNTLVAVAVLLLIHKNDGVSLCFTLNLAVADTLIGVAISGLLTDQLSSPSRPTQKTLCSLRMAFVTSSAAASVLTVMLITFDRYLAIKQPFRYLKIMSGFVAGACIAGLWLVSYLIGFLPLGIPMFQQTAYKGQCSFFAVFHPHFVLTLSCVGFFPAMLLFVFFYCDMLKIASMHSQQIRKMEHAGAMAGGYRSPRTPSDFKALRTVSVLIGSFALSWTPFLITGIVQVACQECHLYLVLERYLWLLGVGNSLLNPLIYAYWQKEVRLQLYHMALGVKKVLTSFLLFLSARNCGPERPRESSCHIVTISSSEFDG
Experimental: CHO K1 cells stably transfected with human GPR119 were grown at 37 °C, […] and 5% CO2 in 75 cm flasks containing DMEM/F12 (1:1) media with added 10% FBS (Gibco®), Geneticin (Gibco®) and grown until 90% confluent. Cells were then washed (PBS), lifted with cell dissociation solution (Invtrogen®), counted and used for cAMP accumulation assays and/or passaging (1:10). Following the manufacturer’s instructions for the LANCE® Ultra cAMP assay (Perkin Elmer), cell transfected with hGPR119 were centrifuged (1000 rpm, 5 min), re-suspended in cAMP assay buffer (HBSS, 0.1% BSA, 0.5 mM IBMX and 5 mM HEPES) and seeded at 5000 cells/well in optiplate-384 (Perkin Elmer). […] Cell lysis buffers (4X Eu-cAMP tracer solution and 4X ULight™-anti-cAMP solution) were added to each well, and the plates were incubated at r. t. for 1 h before being read on Envision (Perkin Elmer). The assay was performed for three replicates for each concentration.

[4] = tested on: C57BL/6N mice; test: oral glucose tolerance test (oGTT), single dose, in C57BL/6N mice; type: in vivo; conditions: for blood glucose AUC0–120 min: mean ± SE, n = 8, vehicle 24.69 ± 3.08; for reduction of blood glucose AUC0–120 min: oGTT 3 g/kg glucose 4 h after dose, vs vehicle, C57BL/6N mice; for blood glucose reduction effect: single dose 15 and 30 mg/kg, oGTT in C57BL/6N mice
Experimental: Figure 2. Single dose of compounds 10 and 15 on oGTT in C57BL/6N mice.
AUC0–2h(mmol/L) = (BG0+BG15)×0.25/2 + (BG15+BG30)×0.25/2 + (BG30+BG60)×0.5/2 + (BG60+BG90)×0.5/2 + (BG90+BG120)×0.5/2.

[5] = cAMP stimulation % compared to maximal effect of GSK1292263
[6] = human GPR119 in CHO K1 cells, cAMP, 1 h incubation, read-out: GPR119 activation EC50

Row | Emax [3, 5] [%] | EC50 [3, 6] [nM] | GPR119 activation %max (inherent activity) [3, 5] [%] | SMILES | other results
1 |  |  |  | CC(C)(C)OC(=O)N1[C@@H]2CC[C@H]1C[C@@H](Nc1ncnc3c(Nc4ccc(S(C)(=O)=O)cc4F)ncnc13)C2 [Compound 1] | EC50 [1]: 2.2 nM; glucose-lowering effect in oGTT [2]: did not show the significant glucose-lowering effect
2 |  |  |  | CC(C)(C)OC(=O)N1[C@@H]2CC[C@H]1C[C@@H](Nc1ncnc3c(Nc4ccc(C#N)cc4F)ncnc13)C2 [Compound 2] | EC50 [1]: 8.1 nM; glucose-lowering effect in oGTT [2]: did not show the significant glucose-lowering effect
3 |  |  |  | CC(C)(C)OC(=O)N1C2CCC1CC(Nc1ncnc3c1OCCN3c1ccc(C#N)cc1F)C2 (stereo not drawn) [Compound 10, tert-Butyl (endo)-3-((8-(4-cyano-2-fluorophenyl)-7,8-dihydro-6H-pyrimido[5,4-b][1,4]oxazin-4-yl)amino)-8-azabicyclo[3.2.1]octane-8-carboxylate] | EC50 [3]: 13 nM; Emax [3]: 83.9%; blood glucose AUC0–120 min ([4]; 15 mg/kg single dose): 22.1 ± 4.28 mmol·h/L; reduction of blood glucose AUC0–120 min ([4]; 15 mg/kg single dose): 10.7%; blood glucose AUC0–120 min ([4]; 30 mg/kg single dose): 20.1 ± 2.27 mmol·h/L; reduction of blood glucose AUC0–120 min ([4]; 30 mg/kg single dose): 18.8%; blood glucose reduction effect [4]: dose-dependent manner
4 | 63.5 | 200 |  | CC(C)(C)OC(=O)N1CCC(Nc2ncnc3c2OCCN3c2ccc(C#N)cc2F)CC1 [Compound 12, tert-Butyl 4-((8-(4-cyano-2-fluorophenyl)-7,8-dihydro-6H-pyrimido[5,4-b][1,4]oxazin-4-yl)amino)piperidine-1-carboxylate] | 
5 |  | 12 | 146.3 | CC(C)OC(=O)N1[C@@H]2CC[C@H]1C[C@@H](Nc1ncnc3c1OCCN3c1ccc(C#N)cc1F)C2 [Compound 15, Isopropyl (endo)-3-((8-(4-cyano-2-fluorophenyl)-7,8-dihydro-6H-pyrimido[5,4-b][1,4]oxazin-4-yl)amino)-8-azabicyclo[3.2.1]octane-8-carboxylate] | EC50 ratio compound 15 vs. compound 22 ([3]; carbamate substituted derivatives, 15 vs. 22): 10 times; blood glucose AUC0–120 min ([4]; 15 mg/kg single dose): 21.1 ± 3.92 mmol·h/L; reduction of blood glucose AUC0–120 min ([4]; 15 mg/kg single dose): 14.5%; blood glucose AUC0–120 min ([4]; 30 mg/kg single dose): 18.9 ± 2.58 mmol·h/L; reduction of blood glucose AUC0–120 min ([4]; 30 mg/kg single dose): 23.4%; blood glucose reduction effect [4]: dose-dependent manner
6 |  | 130 | 60.5 | CCc1cnc(N2[C@@H]3CC[C@H]2C[C@@H](Nc2ncnc4c2OCCN4c2ccc(C#N)cc2F)C3)nc1 [Compound 16, 4-(4-(((endo)-8-(5-Ethylpyrimidin-2-yl)-8-azabicyclo[3.2.1]octan-3-yl)amino)-6,7-dihydro-8H-pyrimido[5,4-b][1,4]oxazin-8-yl)-3-fluorobenzonitrile] | 
7 |  | 250 | 71.2 | N#Cc1ccc(N2CCOc3c(N[C@H]4C[C@H]5CC[C@@H](C4)N5c4ncc(Cl)cn4)ncnc32)c(F)c1 [Compound 17, 4-(4-(((endo)-8-(5-Chloropyrimidin-2-yl)-8-azabicyclo[3.2.1]octan-3-yl)amino)-6,7-dihydro-8H-pyrimido[5,4-b][1,4]oxazin-8-yl)-3-fluorobenzonitrile] | 
8 |  | 110 | 100 | N#Cc1ccc(N2CCOc3c(NC4CC5CCC(C4)N5CC(=O)N4CCn5c(nnc5C(F)(F)F)C4)ncnc32)c(F)c1 (stereo not drawn) [Compound 18, 3-Fluoro-4-(4-(((endo)-8-(2-oxo-2-(3-(trifluoromethyl)-5,6-dihydro-[1,2,4]triazolo[4,3-a]pyrazin-7(8H)-yl)ethyl)-8-azabicyclo[3.2.1]octan-3-yl)amino)-6,7-dihydro-8H-pyrimido[5,4-b][1,4]oxazin-8-yl)benzonitrile] | 
9 |  | 68 | 75.6 | CC(C)(C)OC(=O)N[C@@H]1CCCN(C(=O)CN2[C@@H]3CC[C@H]2C[C@@H](Nc2ncnc4c2OCCN4c2ccc(C#N)cc2F)C3)C1 [Compound 19, tert-Butyl ((R)-1-(2-((endo)-3-((8-(4-cyano-2-fluorophenyl)-7,8-dihydro-6H-pyrimido[5,4-b][1,4]oxazin-4-yl)amino)-8-azabicyclo[3.2.1]octan-8-yl)acetyl)piperidin-3-yl)carbamate] | 
10 |  | 82 | 79.6 | CC(C)(C)OC(=O)N1CCN(C(=O)CN2[C@@H]3CC[C@H]2C[C@@H](Nc2ncnc4c2OCCN4c2ccc(C#N)cc2F)C3)CC1 [Compound 20, tert-Butyl 4-(2-((endo)-3-((8-(4-cyano-2-fluorophenyl)-7,8-dihydro-6H-pyrimido[5,4-b][1,4]oxazin-4-yl)amino)-8-azabicyclo[3.2.1]octan-8-yl)acetyl)piperazine-1-carboxylate] | 
11 | 66.1 | 120 |  | CC(C)OC(=O)N1CCC(Nc2ncnc3c2OCCN3c2ccc(C#N)cc2F)CC1 [Compound 22, Isopropyl 4-((8-(4-cyano-2-fluorophenyl)-7,8-dihydro-6H-pyrimido[5,4-b][1,4]oxazin-4-yl)amino)piperidine-1-carboxylate] | 
12 | 70.7 | 44 |  | CCc1cnc(N2CCC(Nc3ncnc4c3OCCN4c3ccc(C#N)cc3F)CC2)nc1 [Compound 23, 4-(4-((1-(5-Ethylpyrimidin-2-yl)piperidin-4-yl)amino)-6,7-dihydro-8H-pyrimido[5,4-b][1,4]oxazin-8-yl)-3-fluorobenzonitrile] | 
13 | 62.7 | 40 |  | N#Cc1ccc(N2CCOc3c(NC4CCN(c5ncc(Cl)cn5)CC4)ncnc32)c(F)c1 [Compound 24, 4-(4-((1-(5-Chloropyrimidin-2-yl)piperidin-4-yl)amino)-6,7-dihydro-8H-pyrimido[5,4-b][1,4]oxazin-8-yl)-3-fluorobenzonitrile] | 
14 | 100 | 90 |  | CC(C)(C)OC(=O)N1CCN(C(=O)CN2CCC(Nc3ncnc4c3OCCN4c3ccc(C#N)cc3F)CC2)CC1 [Compound 25, tert-Butyl 4-(2-(4-((8-(4-cyano-2-fluorophenyl)-7,8-dihydro-6H-pyrimido[5,4-b][1,4]oxazin-4-yl)amino)piperidin-1-yl)acetyl)piperazine-1-carboxylate] | 
15 |  |  |  | CC(C)c1noc(N2CCC(COc3ccc(-c4ccc(S(C)(=O)=O)cc4)nc3)CC2)n1 [GSK-1292263, reference compound] | EC50 [3]: 6.6 nM

Row | SMILES | Emax [3, 5] [%] | EC50 [3, 6] [nM] | GPR119 activation %max (inherent activity) [3, 5] [%] | other results
16 | CC(C)(C)OC(=O)N1C2CCC1CC(CNc1ncnc3c1OCCN3c1ccc(C#N)cc1F)C2 (stereo not drawn) [Compound 11, tert-Butyl (exo)-3-(((8-(4-cyano-2-fluorophenyl)-7,8-dihydro-6H-pyrimido[5,4-b][1,4]oxazin-4-yl)amino)methyl)-8-azabicyclo[3.2.1]octane-8-carboxylate] | 45.9 | 1800 |  | 
17 | CC(C)(C)OC(=O)N1C2CCCC1CC(Nc1ncnc3c1OCCN3c1ccc(C#N)cc1F)C2 (centres unmarked) [Compound 13, tert-Butyl 3-((8-(4-cyano-2-fluorophenyl)-7,8-dihydro-6H-pyrimido[5,4-b][1,4]oxazin-4-yl)amino)-9-azabicyclo[3.3.1]nonane-9-carboxylate] | 22.7 | > 10000 |  | 
